This note sets out measurements from patent US10640534B2 (Agios Pharmaceuticals, Inc., priority 2012, dated 2020).

In one experiment the test system is HT1080 cells. Briefly: Cellular assay, inhibition of 2-HG production in HT1080 cells. The format is cell-based. As for the experimental part:
Cells (HT1080 or U87MG) are grown in T125 flasks in DMEM containing 10% FBS, 1× penicillin/streptomycin and 500 ug/mL G418 (present in U87MG cells only). They are harvested by trypsin and seeded into 96 well white bottom plates at a density of 5000 cell/well in 100 ul/well in DMEM with 10% FBS. […] Cells are incubated overnight at 37° C. in 5% CO2. The next day test compounds are made up at 2× the final concentration and 100 ul are added to each cell well. The final concentration of DMSO is 0.2% and the DMSO control wells are plated in row G. The plates are then placed in the incubator for 48 hours. […] The cell plate is placed back in the incubator for another 24 hours. At 72 hours post compound addition, 10 mL/plate of Promega Cell Titer Glo reagent is thawed and mixed. The cell plate is removed from the incubator and allowed to equilibrate to room temperature. Then 100 ul of Promega Cell Titer Glo reagent is added to each well of media. The cell plate is then placed on an orbital shaker for 10 minutes and then allowed to sit at room temperature for 20 minutes. The plate is then read for luminescence with an integration time of 500 ms.

For another experiment, the system named is U87MG cells. Kind of experiment: Cellular assay, inhibition of 2-HG production in U87MG cells. The format is cell-based. The method in brief: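 HT1080 or U87MG cells (U87MG kept with 500 ug/mL G418) seeded at 5000 cells/well and treated with compound at 0.2% final DMSO. Incubated 48 h at 37 °C. 2-HG inhibition determined by LC-MS. Viability read by CellTiter-Glo luminescence at 72 h post-dose.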

In the next experiment the target is IDH1 R132C (Homo sapiens (Human), UniProt O75874, R132C). Briefly: In vitro NADPH depletion assay for IDH1m R132C inhibitors. The format is biochemical. Particulars: enzyme, read-out: IDH R132C IC50. How it is done: A test compound is prepared as 10 mM stock in DMSO and diluted to 50× final concentration in DMSO, for a 50 μl reaction mixture. IDH enzyme activity converting alpha-ketoglutarate to 2-hydroxyglutaric acid is measured using a NADPH depletion assay. In the assay the remaining cofactor is measured at the end of the reaction with the addition of a catalytic excess of diaphorase and resazurin, to generate a fluorescent signal in proportion to the amount of NADPH remaining. […] The reaction is started with the addition of 10 μl of Substrate Mix ([…], 5 mM alpha-ketoglutarate, in Assay Buffer) and the mixture is incubated for 90 minutes at room temperature.
The concentration of NADPH and alpha-ketoglutarate in the Substrate Buffer is 20 μM and 1 mM, respectively.

Where [1] appears, read: inhibition of 2-HG production, HT1080 cells, 48 hours.
[2] abbreviates: inhibition of 2-HG production, U87MG cells, 48 hours.

In general, IC50 refers to the concentration at which inhibition is half-maximal.

Sequence of IDH1 R132C (O75874 whole entry R132C): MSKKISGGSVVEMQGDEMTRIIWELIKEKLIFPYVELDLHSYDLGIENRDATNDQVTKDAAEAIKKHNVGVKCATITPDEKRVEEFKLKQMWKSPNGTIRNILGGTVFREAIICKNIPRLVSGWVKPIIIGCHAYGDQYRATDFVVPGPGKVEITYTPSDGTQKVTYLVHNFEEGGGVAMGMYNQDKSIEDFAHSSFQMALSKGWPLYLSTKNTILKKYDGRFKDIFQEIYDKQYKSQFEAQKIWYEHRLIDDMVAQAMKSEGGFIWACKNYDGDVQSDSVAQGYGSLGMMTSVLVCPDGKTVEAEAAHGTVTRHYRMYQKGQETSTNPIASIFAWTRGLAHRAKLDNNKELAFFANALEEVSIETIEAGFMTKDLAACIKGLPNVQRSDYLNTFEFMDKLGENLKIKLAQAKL

As for `O=C(NC1CC(F)(F)C1)[C@H](c1ccccc1Cl)N(C(=O)[C@@H]1CCC(=O)N1c1cc(C(F)(F)F)ccn1)c1cccc(F)c1` [Compound 40], the IC50 in the experiment with HT1080 cells (Homo sapiens, HT-1080, 48 h) is 0.1 to 0.5 µM; with U87MG cells (Homo sapiens, U-87 MG, 48 h), 0.1 to 0.5 µM. Regarding `Cc1cccnc1N1C(=O)CC[C@H]1C(=O)N(c1cccc(F)c1)[C@H](C(=O)NC1CC(F)(F)C1)c1ccccc1Cl` [Compound 15], the IC50 with HT1080 cells (Homo sapiens, HT-1080, 48 h) was in the range of 0.1 to 0.5 µM; in the experiment with U87MG cells (Homo sapiens, U-87 MG, 48 h), 0.1 to 0.5 µM. Regarding “(S)-tert-butyl 3-(((S)-1-(2-chlorophenyl)-2-((3,3-difluorocyclobutyl)amino)-2-oxoethyl)(3,5-difluorophenyl)carbamoyl)-5-oxopiperazine-1-carboxylate [Compound 97]”, the IC50 with HT1080 cells (setting [1]) and in the experiment with U87MG cells (setting [2]) was < 0.1 µM each time.

Consider `N#Cc1ccnc(N2C(=O)CC[C@H]2C(=O)N(c2cccc(OC3CC3)c2)C(C(=O)NC2CC(F)(F)C2)c2ccccc2Cl)n1` (stereo partly drawn) [Compound 192, (2S)—N-(1-(2-Chlorophenyl)-2-((3,3-difluorocyclobutyl)amino)-2-oxoethyl)-1-(4-cyanopyrimidin-2-yl)-N-(3-cyclopropoxyphenyl)-5-oxopyrrolidine-2-carboxamide], for which the IC50 in the experiment on HT1080 cells (Homo sapiens, HT-1080, 48 h) is < 0.1 µM; with U87MG cells (Homo sapiens, U-87 MG, 48 h) it was < 0.1 µM.

Regarding `N#Cc1ccnc(N2C(=O)CC[C@H]2C(=O)N(c2cccc(F)c2)[C@H](C(=O)NC2CC(F)(F)C2)c2c(Cl)cccc2Cl)c1` (single isomer, unassigned) [Compound 63], the IC50 is < 0.1 µM in the experiment with HT1080 cells (Homo sapiens, HT-1080, 48 h) and < 0.1 µM in the experiment with U87MG cells (Homo sapiens, U-87 MG, 48 h). For `COc1cccnc1N1C(=O)CC[C@H]1C(=O)N(c1cccc(F)c1)[C@H](C(=O)NC1CC(F)(F)C1)c1ccccc1Cl` [Compound 17], the IC50 in the experiment with HT1080 cells (Homo sapiens, HT-1080, 48 h) is 0.5 to 1 µM; in the experiment with U87MG cells (Homo sapiens, U-87 MG, 48 h), 1 to 2 µM. Consider `O=C(NC1CC(F)(F)C1)[C@H](c1ccccc1Cl)N(C(=O)[C@@H]1CCC(=O)N1c1ccncn1)c1cccc(F)c1` [Compound 22], for which, at IDH1 R132C, the IC50 is 0.1 to 0.5 µM. For the compound `O=C(NC1CC(F)C1)[C@H](c1ccccc1Cl)N(C(=O)[C@@H]1CCC(=O)N1c1ncccn1)c1cccc(F)c1` (some centres unmarked) [Compound 49], the IC50 with HT1080 cells (Homo sapiens, HT-1080, 48 h) lay in the range of 0.1 to 0.5 µM; in the experiment on U87MG cells (Homo sapiens, U-87 MG, 48 h), 0.1 to 0.5 µM. Consider “(2S)—N-(1-(2-Chlorophenyl)-2-((3,3-difluorocyclobutyl)amino)-2-oxoethyl)-1-(4-cyanopyridin-2-yl)-N-(3-fluoro-5-(methylsulfonyl)phenyl)-5-oxopyrrolidine-2-carboxamide [Compound 110]”, for which the concentration for half-maximal inhibition (IC50) in the experiment on HT1080 cells (setting [1]) and with U87MG cells (setting [2]) was < 0.1 µM in each case.
